Each structure is given as a SMILES string. pIC50: −log10 of the molar value. Like-named read-outs stand apart in the source and are kept apart here.

One assay has as its target NAMPT (Homo sapiens (Human), UniProt P43490). Briefly: NAMPT biochemical inhibition assay (NMN quantified by mass spectrometry).
The subject of the next assay is A2780 cells. Nature of the assay: In-vitro cell proliferation assay (SRB), A2780 cells.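 Also: viable cell number read as SRB absorbance, background from media-only wells subtracted, IC50 interpolated from percent inhibition at two bracketing compound concentrations.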 Type of assay: cell-based. The following applies: A2780 cells, 72 hours, SRB, read-out: A2780 IC50.
[1] abbreviates: NAMPT biochemical inhibition, read-out: Biochem IC50.

Sequence of NAMPT (P43490 whole entry): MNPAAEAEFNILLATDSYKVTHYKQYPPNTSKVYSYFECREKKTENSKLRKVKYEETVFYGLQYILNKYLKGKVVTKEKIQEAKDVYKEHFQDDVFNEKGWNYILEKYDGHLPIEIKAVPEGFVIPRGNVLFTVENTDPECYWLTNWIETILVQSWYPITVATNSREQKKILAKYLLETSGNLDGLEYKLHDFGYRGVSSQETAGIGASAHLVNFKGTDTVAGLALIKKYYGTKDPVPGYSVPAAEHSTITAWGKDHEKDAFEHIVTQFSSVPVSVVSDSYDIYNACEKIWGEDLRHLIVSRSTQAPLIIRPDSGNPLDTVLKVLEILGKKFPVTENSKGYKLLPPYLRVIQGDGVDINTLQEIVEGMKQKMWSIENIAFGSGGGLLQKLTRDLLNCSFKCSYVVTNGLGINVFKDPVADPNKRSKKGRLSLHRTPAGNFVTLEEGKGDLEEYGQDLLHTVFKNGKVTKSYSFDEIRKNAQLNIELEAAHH

`O=C(NCc1cccnc1)Nc1ccc(S(=O)(=O)N2CCC[C@H](C(F)(F)F)C2)cc1` [1-(pyridin-3-ylmethyl)-3-{4-[(3S)-3-(trifluoromethyl)piperidine-1-sulfonyl]phenyl}urea]: the negative logarithm of the IC50 (pIC50) on NAMPT (setting [1]) is 8.52; in the assay on A2780 cells (Homo sapiens, A2780, 72 h), 7.54.
The like results for `O=C(NCc1cccnc1)Nc1ccc(S(=O)(=O)c2ccc(OCC(F)(F)F)c(F)c2)cc1` [3-(4-{[3-fluoro-4-(2,2,2-trifluoroethoxy)benzene]sulfonyl}phenyl)-1-(pyridin-3-ylmethyl)urea] were, in that order, 8.66 and 6.00 to 7.00.
The like results for `COc1ccccc1N1CCN(S(=O)(=O)c2ccc(NC(=O)NCc3cccnc3)cc2)CC1` [3-{4-[4-(2-methoxyphenyl)piperazine-1-sulfonyl]phenyl}-1-(pyridin-3-ylmethyl)urea] were, in that order, 8.15 and 7.46.
The like results for `COc1cccc(S(=O)(=O)c2ccc(NC(=O)NCc3cccnc3)cc2)c1F` [3-{4-[(2-fluoro-3-methoxybenzene)sulfonyl]phenyl}-1-(pyridin-3-ylmethyl)urea] were, in that order, 9.00 and 6.41.
Turning to `Cc1cccc(S(=O)(=O)c2ccc(NC(=O)NCc3cccnc3)cc2)c1C` [3-{4-[(2,3-dimethylbenzene)sulfonyl]phenyl}-1-(pyridin-3-ylmethyl)urea], the pIC50 is 8.30 on NAMPT (setting [1]) and 6.53 with A2780 cells (Homo sapiens, A2780, 72 h).
In the case of `O=C(NCc1cccnc1)Nc1ccc(S(=O)(=O)c2ccc(F)c(OCC(F)(F)F)c2)cc1` [3-(4-{[4-fluoro-3-(2,2,2-trifluoroethoxy)benzene]sulfonyl[phenyl)-1-(pyridin-3-ylmethyl)urea], the pIC50 on NAMPT (setting [1]) was 8.68; in the assay with A2780 cells it was 7.63.
`O=C(NCc1cccnc1)Nc1ccc(S(=O)(=O)N2CCN(C(=O)c3ccco3)CC2)cc1` [1-(4-{4-[(furan-2-yl)carbonyl]piperazine-1-sulfonyl}phenyl)-3-(pyridin-3-ylmethyl)urea]: the negative-log IC50 (pIC50) at NAMPT (setting [1]) was 8.40; with A2780 cells (Homo sapiens, A2780, 72 h), 6.77.
With `O=C(NCc1cccnc1)Nc1ccc(S(=O)(=O)N2CCC(C(=O)N3CCOCC3)CC2)cc1` [3-(4-{4-[(morpholin-4-yl)carbonyl]piperidine-1-sulfonyl}phenyl)-1-(pyridin-3-ylmethyl)urea], the pIC50 at NAMPT (setting [1]) was 8.10; in the assay on A2780 cells (Homo sapiens, A2780, 72 h), 7.40.
As to `O=C(NCc1cccnc1)Nc1ccc(S(=O)(=O)N2C3CCCC2CC3)cc1` [1-(4-{8-azabicyclo[3.2.1]octane-8-sulfonyl}phenyl)-3-(pyridin-3-ylmethyl)urea], the pIC50 is 8.40 at NAMPT and 7.19 in the assay with A2780 cells (Homo sapiens, A2780, 72 h).
Turning to `O=C(NCc1cccnc1)Nc1ccc(S(=O)(=O)Nc2ccc(Cl)c3ccccc23)cc1` [3-{4-[(4-chloronaphthalen-1-yl)sulfamoyl]phenyl}-1-(pyridin-3-ylmethyl)urea], the pIC50 at NAMPT (setting [1]) is 8.30; with A2780 cells (Homo sapiens, A2780, 72 h), 7.28.
For the molecule `O=C(NCc1ccc(C(F)(F)F)nc1)Nc1ccc(S(=O)(=O)N2CCCCC2)cc1` [3-[4-(piperidine-1-sulfonyl)phenyl]-1-{[6-(trifluoromethyl)pyridin-3-yl]methyl]urea], the pIC50 at NAMPT (setting [1]) was 6.72; in the assay on A2780 cells (Homo sapiens, A2780, 72 h), < 4.52.
The matching figures for `CC(C)(C)OC(=O)Nc1ccc(CNC(=O)Nc2ccc(S(=O)(=O)N3CCCCC3)cc2)cn1` [tert-butylN-{5-[({[4-(piperidine-1-sulfonyl)phenyl]carbamoyl}amino)methyl]pyridin-2-yl}carbamate]: 5.50 and 5.01.
In the case of `CN(Cc1ccc(Cl)cc1)S(=O)(=O)c1ccc(NC(=O)NCc2cccnc2)cc1` [3-(4-{[(4-chlorophenyl)methyl](methyl)sulfamoyl}phenyl)-1-(pyridin-3-ylmethyl)urea], the pIC50 is 8.70 on NAMPT (setting [1]) and 6.32 in the assay on A2780 cells (Homo sapiens, A2780, 72 h).
The like results for `O=C(NCc1cccnc1)Nc1ccc(S(=O)(=O)c2cc(Cl)cc(Cl)c2)cc1` [3-{4-[(3,5-dichlorobenzene)sulfonyl]phenyl}-1-(pyridin-3-ylmethyl)urea] were, in that order, 8.72 and 6.00 to 7.00.
The like results for `O=C(NCc1cccnc1)Nc1ccc(S(=O)(=O)N2CCCC(C(F)(F)F)C2)cc1` (stereo not drawn) [1-(pyridin-3-ylmethyl)-3-{4-[3-(trifluoromethyl)piperidine-1-sulfonyl]phenyl}urea] were, in that order, 8.52 and 7.59.
The matching figures for `O=C(NCc1cccnc1)Nc1ccc(S(=O)(=O)N2CCC(N3CCCCCC3)CC2)cc1` [1-{4-[4-(azepan-1-yl)piperidine-1-sulfonyl]phenyl}-3-(pyridin-3-ylmethyl)urea]: 8.30 and 8.22.
Take `CC(C)NC(=O)c1cccc(S(=O)(=O)c2ccc(NC(=O)NCc3cccnc3)cc2)c1` [N-(propan-2-yl)-3-[(4-{[(pyridin-3-ylmethyl)carbamoyl]amino[benzene)sulfonyl]benzamide]: the pIC50 at NAMPT (setting [1]) was 8.00; in the assay with A2780 cells, 6.00 to 7.00.
For the molecule `O=C(NCc1ccc[n+]([O-])c1)Nc1ccc([S+]([O-])c2ccc(Cl)cc2)cc1` (stereo not drawn) [3-{[({4-[(4-chlorobenzene)sulfinyl]phenyl}carbamoyl)amino]methyl}pyridin-1-ium-1-olate], the pIC50 at NAMPT (setting [1]) was 6.35; with A2780 cells, 4.69.
As for `CC(C)c1ccc(S(=O)(=O)c2ccc(NC(=O)NCc3cccnc3)cc2)c(Cl)n1` [3-{4-[2-chloro-6-(propan-2-yl)pyridine-3-sulfonyl]phenyl}-1-(pyridin-3-ylmethyl)urea], the pIC50 was 8.52 at NAMPT (setting [1]) and 8.22 with A2780 cells (Homo sapiens, A2780, 72 h).
Regarding `O=C(NCc1cccnc1)Nc1ccc(S(=O)(=O)NCC2CCCCC2)cc1` [1-{4-[(cyclohexylmethyl)sulfamoyl]phenyl}-3-(pyridin-3-ylmethyl)urea], the pIC50 is 8.40 on NAMPT (setting [1]) and 6.74 in the assay on A2780 cells (Homo sapiens, A2780, 72 h).
The like results for `O=C(NCc1cccnc1)Nc1ccc(S(=O)(=O)c2ccc(OC(F)(F)F)cc2)cc1` [1-(pyridin-3-ylmethyl)-3-(4-{[4-(trifluoromethoxy)benzene]sulfonyl}phenyl)urea] were, in that order, 8.30 and 6.38.
With `Cc1ccc(S(=O)(=O)c2ccc(NC(=O)NCc3cccnc3)cc2)cn1` [3-[4-(6-methylpyridine-3-sulfonyl)phenyl]-1-(pyridin-3-ylmethyl)urea], the pIC50 at NAMPT (setting [1]) was 8.31; with A2780 cells (Homo sapiens, A2780, 72 h), 6.00 to 7.00.
The matching figures for `O=C(NCc1cccnc1)Nc1ccc(S(=O)(=O)c2ccc(N3CCOCC3)nc2)cc1` [1-{4-[6-(morpholin-4-yl)pyridine-3-sulfonyl]phenyl}-3-(pyridin-3-ylmethyl)urea]: 8.44 and 7.52.
The matching figures for `O=C(NCc1ccc(S(=O)(=O)c2ccccc2)cc1)Nc1ccc2ncccc2c1` [1-{[4-(benzenesulfonyl)phenyl]methyl}-3-(quinolin-6-yl)urea]: 5.65 and < 4.52.
The matching figures for `O=C(NCc1cccnc1)Nc1ccc(S(=O)(=O)c2cccc(F)c2F)cc1` [3-{4-[(2,3-difluorobenzene)sulfonyl]phenyl}-1-(pyridin-3-ylmethyl)urea]: 8.40 and 6.26.
For the molecule `CN(C)c1ccc(CNS(=O)(=O)c2ccc(NC(=O)NCc3cccnc3)cc2)cc1` [3-[4-({[4-(dimethylamino)phenyl]methyl}sulfamoyl)phenyl]-1-(pyridin-3-ylmethyl)urea], the negative logarithm of the IC50 (pIC50) at NAMPT (setting [1]) is 8.52; in the assay on A2780 cells (Homo sapiens, A2780, 72 h) it was 6.83.
As to `CC(=O)c1ccccc1S(=O)(=O)c1ccc(NC(=O)NCc2cccnc2)cc1` [3-{4-[(2-acetylbenzene)sulfonyl]phenyl}-1-(pyridin-3-ylmethyl)urea], the pIC50 was 8.70 on NAMPT (setting [1]) and 6.49 in the assay with A2780 cells (Homo sapiens, A2780, 72 h).
The matching figures for `COc1c(C)cc(S(=O)(=O)c2ccc(NC(=O)NCc3cccnc3)cc2)cc1C` [3-{4-[(4-methoxy-3,5-dimethylbenzene)sulfonyl]phenyl}-1-(pyridin-3-ylmethyl)urea]: 8.68 and 8.05.
The matching figures for `O=C(NCc1ccc(-n2cccn2)nc1)Nc1ccc(S(=O)(=O)c2ccccc2)cc1` [3-[4-(benzenesulfonyl)phenyl]-1-{[6-(1H-pyrazol-1-yl)pyridin-3-yl]methyl}urea]: 5.42 and < 5.00.
For `CC(=O)Nc1cccc(S(=O)(=O)c2ccc(NC(=O)NCc3cccnc3)cc2)c1` [N-{3-[(4-{[(pyridin-3-ylmethyl)carbamoyl]amino}benzene)sulfonyl]phenyl}acetamide], the pIC50 at NAMPT (setting [1]) was 8.82; in the assay on A2780 cells (Homo sapiens, A2780, 72 h), 7.40.
Take `CC(C)(C)CNS(=O)(=O)c1ccc(NC(=O)NCc2cccnc2)cc1` [3-{4-[(2,2-dimethylpropyl)sulfamoyl]phenyl}-1-(pyridin-3-ylmethyl)urea]: the pIC50 at NAMPT (setting [1]) was 7.77; with A2780 cells (Homo sapiens, A2780, 72 h) it was 6.80.
With `O=C(NCc1cccnc1)Nc1ccc(S(=O)(=O)c2cnc3ccccc3c2)cc1` [3-(pyridin-3-ylmethyl)-1-[4-(quinoline-3-sulfonyl)phenyl]urea], the pIC50 is 8.55 on NAMPT (setting [1]) and 7.55 in the assay with A2780 cells (Homo sapiens, A2780, 72 h).
The like results for `O=C(NCc1cccnc1)Nc1ccc(S(=O)(=O)c2cncnc2)cc1` [3-(pyridin-3-ylmethyl)-1-[4-(pyrimidine-5-sulfonyl)phenyl]urea] were, in that order, 7.70 and 6.06.
The matching figures for `O=C(NCc1cccnc1)Nc1ccc(S(=O)(=O)Nc2ccccc2-c2ccccc2)cc1` [1-{4-[(2-phenylphenyl)sulfamoyl]phenyl}-3-(pyridin-3-ylmethyl)urea]: 8.52 and 7.33.
Turning to `Cc1ccc(NS(=O)(=O)c2ccc(NC(=O)NCc3cccnc3)cc2)cc1C(F)(F)F` [3-(4-{[4-methyl-3-(trifluoromethyl)phenyl]sulfamoyl[phenyl)-1-(pyridin-3-ylmethyl)urea], the values for the pIC50 at NAMPT (setting [1]) and in the assay with A2780 cells were 8.70 and 6.75, respectively.
The matching figures for `Cc1nnc(-c2cccc(S(=O)(=O)c3ccc(NC(=O)NCc4cccnc4)cc3)c2)o1` [3-(4-{[3-(5-methyl-1,3,4-oxadiazol-2-yl)benzene]sulfonyl]phenyl)-1-(pyridin-3-ylmethyl)urea]: 8.14 and 6.00 to 7.00.

These data come from US11279687B2, “Compounds and compositions for the inhibition of NAMPT” (Valo Health, Inc., priority 2010, dated 2022).
